From the supplement of paper PMC10290057
Counter-ions that a name gives are not always drawn.

System: HCT116
Experiment: efficacy (fitted maximal change in viability relative to DMSO control); higher = less cytotoxic (negative = loss of viability)
Conditions: 48 h
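Note: Luminescence-based viability readout, five doses per compound, normalized against on-plate DMSO and empty-well controls, followed by dose-response curve fitting for every drug.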

| SMILES | efficacy [%] |
| --- | --- |
| CC#CC(=O)N1CC[C@@H](n2c(=O)n(-c3ccc(Oc4ccccc4)cc3)c3c(N)ncnc32)C1 [ONO-4059 (GS-4059)] | -53.5 |
| C=CC(=O)N1CCC[C@H](n2c(=O)n(-c3ccc(Oc4ccccc4)cc3)c3c(N)ncnc32)C1 [ONO-4059 analog] | -67.4 |
| CCOCOC[C@H](C[C@H](C)C(=O)NO)NC(=O)c1ccc(Oc2ccccc2)cc1 [ONO-4817] | -33.1 |
| CN(C)CCNC(=O)COc1c2cccc1Cc1cccc(c1OCC(=O)NCCN(C)C)Cc1cccc(c1OCC(=O)NCCN(C)C)Cc1cccc(c1OCC(=O)NCCN(C)C)C2 [OTX-008] | -46.7 |
| CCC(CCCC)COC(=O)C(\C#N)=C(\c1ccccc1)c2ccccc2 (centres undefined) [Octocrylene] | -31.5 |
| C[C@@H](O)[C@@H]1NC(=O)[C@H](CCCCN)NC(=O)[C@@H](Cc2c[nH]c3ccccc23)NC(=O)[C@H](Cc2ccccc2)NC(=O)[C@@H](NC(=O)[C@H](N)Cc2ccccc2)CSSC[C@@H](C(=O)N[C@H](CO)[C@@H](C)O)NC1=O [Octreotide] | 9.15 |
| CC(C)(F)C[C@H](N[C@@H](c1ccc(-c2ccc([S+](C)(=O)[O-])cc2)cc1)C(F)(F)F)C(=O)NC1(C#N)CC1 [Odanacatib] | -28.3 |
| CC1COC2=C3N1\C=C(C(O)=O)/C(=O)C3=CC(=C2N4CCN(C)CC4)F (centres undefined) [Ofloxacin] | -9.68 |
| N[C@@H](CCC(=O)O)C(=O)N[C@@H](Cc1c[nH]c2ccccc12)C(=O)O [Oglufanide] | -13.7 |
| FC1=C(C=C(C/C2=N/NC(=O)C3=C2C=CC=C3)C=C1)C(=O)N4CCN(CC4)C(=O)C5CC5 [Olaparib] | -38.8 |
| CCCc1nc(C(C)(C)O)c(C(=O)O)n1Cc1ccc(-c2ccccc2-c2nn[nH]n2)cc1 [Olmesartan] | -6.46 |
| CN(C)CC/C=C1/c2ccccc2COc2ccc(CC(=O)O)cc21 [Olopatadine hydrochloride] | 5.52 |
| C\C1=C(\SSC1=S)C2=CN=CC=N2 [Oltipraz] | -26.5 |
| COC(=O)N1CCN(Cc2cccc(NC(=O)Nc3ccc(C)nc3)c2F)CC1 [Omecamtiv mecarbil] | -28.6 |
| COc1ccc2[nH]c([S+]([O-])Cc3ncc(C)c(OC)c3C)nc2c1 (centres undefined) [Omeprazole] | -17.5 |
| CN(CC#C)C/C1=C/C2=CC=CC=C2OC3=CC=CC=C13 [Omigapil] | -34.5 |
| CCCCCCCCCCCC(CC1OC(=O)C1CCCCCC)OC(=O)C(CC(C)C)NC=O (centres undefined) [Orlistat] | -6.83 |
| OC(=O)C/1=C/C(=O)NC(=O)N1 [Orotic acid] | -16.5 |
| CNC(=O)c1ccc2cc(C3(O)CCn4cncc43)ccc2c1 (centres undefined) [Orteronel] | -5.91 |
| CCOC(=O)\C1=C\[C@@H](OC(CC)CC)[C@H](NC(C)=O)[C@@H](N)C1 [Oseltamivir phosphate] | 13 |
| OCCOc1ccc(/C(=C(/CCCl)c2ccccc2)c2ccccc2)cc1 [Ospemifene] | -49.5 |
| C[C@]12COC(=O)C[C@@H]1CC[C@@H]1[C@@H]2CC[C@@]2(C)[C@H]1CC[C@]2(C)O [Oxandrolone] | -21.6 |
| O=C1CCC[C@@H]2[C@H]3CCC[N+]4([O-])CCC[C@@H](CN12)[C@@H]34 (some centres undefined) [Oxymatrine] | -29.8 |

| SMILES | efficacy [%] |
| --- | --- |
| CC1=CC(=C(O)C(=C1C\C2=N\CCN2)C)C(C)(C)C [Oxymetazoline hydrochloride] | -19.1 |
| CC(C)Oc1ccc(-c2nc(-c3cccc4c3CC[C@@H]4NCCO)no2)cc1C#N [Ozanimod] | -31.3 |
| O=[N+]([O-])c1cn2c(n1)OC[C@@H](OCc1ccc(OC(F)(F)F)cc1)C2 [PA-824] | -19.8 |
| COc1cc(OCc2cccc(-c3ccccc3)c2C)cc(OC)c1CN1CCCC[C@H]1C(=O)O [PD-1/PD-L1 Inhibitor 1] | -62 |
| FC1=CC=C(CN2\C=C/C=C(/C(=O)N[C@@H](COC3=CC4=C(NC(=O)N4)C=C3)C5=CC=CC=C5)C2=O)C=C1F [PDPK1 Inhibitor] | -72.1 |
| O=C(CCN1CCN(C(=O)OCc2cc(Cl)cc(Cl)c2)CC1)c1ccc2[nH]c(=O)oc2c1 [PF-8380] | -11.3 |
| O=C(/C=C/N1C[C@H]2C[C@@H]1CN2c1ccccn1)c1ccccc1O [PFI-3] | -9.44 |
| COc1ccccc1C(=O)Nc1cc2c(cc1N1CCCC1)n(C)c(=O)n2C [PFI-4] | -64 |
| CCCCCCCCCCCCc1ccc([S+](=O)([O-])Nc2nncs2)cc1 [PHT-427] | -13.9 |
| CC1=C(C=CC=C1)N2\C(=N/C3=C(C(=CC=C3)C)C2=O)C[N]4N=CC5=C4N=CN=C5N [PIK-293] | -6.78 |
| O=C(CCCc1ccc2cccnc2n1)NCc1cc(-c2ccc(F)c(C(F)(F)F)c2)no1 [PRP003-062] | -32.2 |
| Clc1cccc(-c2ccc(-c3nnc(CCCc4ccc5cccnc5n4)o3)cc2)c1 [PRP003-073] | -17.9 |
| O=C(Nc1cc(Cl)cc2c1[nH]c1cnccc12)c1cccnc1 [PS-1145] | 18.5 |
| C[S+](=O)([O-])c1ccc(Oc2cc(F)cc(C#N)c2)c2c1[C@H](O)C(F)(F)C2 [PT-2385] | -10.6 |
| O=C(O)c1cccc(-c2noc(-c3ccccc3F)n2)c1 [PTC-124] | -22.5 |
| C=CCN(/C=C1\C(=O)O[C@@H](COC)[C@]2(C)C1=C(O)C(=O)C1=C2[C@@H](OC(C)=O)C[C@]2(C)C(=O)CC[C@H]12)CC=C [PX-866] | -20.5 |
| CN1CCCN=C1/C=C/c1cccs1 [PYRANTEL PAMOATE] | -47 |
| CC(=O)O[C@H]1C(=O)[C@]2(C)[C@@H](O)C[C@H]3OC[C@@]3(OC(C)=O)C2[C@H](OC(=O)C4=CC=CC=C4)[C@]5(O)C[C@H](OC(=O)[C@H](O)[C@@H](NC(=O)C6=CC=CC=C6)C7=CC=CC=C7)\C(=C1/C5(C)C)C (some centres undefined) [Paclitaxel] | -68.3 |
| CC(=O)O[C@H]1C[C@@H]2CC[C@@H]3[C@H](CC[C@@]4(C)[C@H]3C[C@H]([N+]3(C)CCCCC3)[C@@H]4OC(C)=O)[C@@]2(C)C[C@@H]1[N+]1(C)CCCCC1 [Pancuronium bromide] | -8.83 |
| COc1ccnc(C[S+]([O-])c2nc3cc(OC(F)F)ccc3[nH]2)c1OC (centres undefined) [Pantoprazole] | -34.5 |
| CCC(=O)[N-]S(=O)(=O)c1ccc(-c2c(-c3ccccc3)noc2C)cc1.[Na+] [Parecoxib sodium] | -9.88 |
| CCN1\C=C(C(O)=O)/C(=O)C2=C1C=C(N3CCN(C)CC3)C(=C2)F [Pefloxacin] | 5.51 |
| CSCC[C@H](NC(=O)[C@H](Cc1c[nH]c2ccccc12)NC(=O)CCNC(=O)OC(C)(C)C)C(=O)N[C@@H](CC(=O)O)C(=O)N[C@@H](Cc1ccccc1)C(N)=O [Pentagastrin] | -5.16 |

| SMILES | efficacy [%] |
| --- | --- |
| CC(C)CC(=O)N[C@H](C(=O)N[C@H](C(=O)N[C@@H](CC(C)C)[C@@H](O)CC(=O)N[C@@H](C)C(=O)N[C@@H](CC(C)C)[C@@H](O)CC(=O)O)C(C)C)C(C)C [Pepstatin] | -6.41 |
| CCC[C@H](N[C@@H](C)C(=O)N1[C@H](C(=O)O)C[C@@H]2CCCC[C@@H]21)C(=O)OCC [Perindopril] | 9 |
| FC(F)(F)c1ccc(CNc2ccc(Cc3c[nH]c4ncc(Cl)cc34)cn2)cn1 [Pexidartinib] | -21.9 |
| NNCCc1ccccc1.O=S(=O)(O)O [Phenelzine] | -40.1 |
| CC(COc1ccccc1)N(CCCl)Cc1ccccc1 (centres undefined) [Phenoxybenzamine hydrochloride] | -19.8 |
| O=C(CCc1ccc(O)cc1)c1c(O)cc(O)cc1O [Phloretin] | 6.68 |
| O=C(CCc1ccc(O)cc1)c1c(O)cc(O)cc1O[C@@H]1O[C@H](CO)[C@@H](O)[C@H](O)[C@H]1O [Phlorizin] | -28.6 |
| Nc1nccc(-c2ccc3noc(-c4ccc(Cl)cc4)c3c2)n1 [Pim 1 Inhibitor 2] | -55 |
| CCc1ccc(CCOc2ccc(CC3SC(=O)NC3=O)cc2)nc1 (centres undefined) [Pioglitazone hydrochloride] | 16.5 |
| Clc1ccc2c(N3CCN(CCCN4CCN(c5ccnc6cc(Cl)ccc56)CC4)CC3)ccnc2c1 [Piperaquine] | -15.3 |
| c1cc(CN2CCCNCCNCCCNCC2)ccc1CN1CCCNCCNCCCNCC1 [Plerixafor hydrochloride] | -8.04 |
| COc1cc([C@@H]2c3cc4c(cc3[C@H](O)[C@H]3COC(=O)[C@H]23)OCO4)cc(OC)c1OC [Podofilox] | -62.3 |
| CCC(C)CCCCC(=O)N[C@@H](CCN)C(=O)NC(C(=O)N[C@H](CCN)C(=O)N[C@@H]1CCNC(=O)C([C@@H](C)O)NC(=O)[C@@H](CCN)NC(=O)[C@@H](CCN)NC(=O)[C@@H](CC(C)C)NC(=O)[C@H](Cc2ccccc2)NC(=O)[C@H](CCN)NC1=O)[C@@H](C)O (some centres undefined) [Polymyxin B sulphate] | -10.6 |
| Nc1cccc2c1C(=O)N(C1CCC(=O)NC1=O)C2=O (centres undefined) [Pomalidomide] | -14.1 |
| COC12C(COC(N)=O)\C3=C(/N1CC4C2N4C)C(=O)C(=C(N)/C3=O)\C (centres undefined) [Porfiromycin] | -81 |
| O=C(O)C[C@H]1CC[C@H](c2ccc(-c3ccc(Nc4ccc(C(F)(F)F)nc4)cn3)cc2)CC1 [Pradigastat] | -15.9 |
| CCO[C@@H]1OC(=O)C[C@@H]1NC(=O)[C@@H]1CCCN2C(=O)CC[C@H](NC(=O)c3nccc4ccccc34)C(=O)N12 [Pralnacasan] | -15.4 |
| CC[C@H](C)C(=O)O[C@H]1C[C@H](O)\C=C2\C=C/[C@H](C)[C@H](CC[C@@H](O)C[C@@H](O)CC(O)=O)[C@@H]12 [Pravastatin sodium] | -7.8 |
| O=C(C1CCCCC1)N1CC(=O)N2CCc3ccccc3C2C1 (centres undefined) [Praziquantel] | -15.9 |
| C[C@]12CC(=O)[C@H]3[C@@H](CC\C4=C\C(=O)\C=C/[C@]34C)[C@@H]1CC[C@]2(O)C(=O)CO [Prednisone] | 8.5 |
| CC(C)C[C@H](CN)CC(=O)O [Pregabalin] | -8.5 |
| CC(=O)[C@H]1CC[C@H]2[C@@H]3C/C=C4/C[C@@H](O)CC[C@]4(C)[C@H]3CC[C@]12C [Pregnenolone] | -6.65 |
| COCCOc1ccc(N2CCN(CCn3ncc4c3nc(N)n3nc(-c5ccco5)nc43)CC2)cc1 [Preladenant] | -16 |
